Results published in patent publication US7452869B2, “NIP3 family of proteins” (University of Manitoba, priority 2000, dated 2008).

What was measured:
MCF-7 cells = experiment: cytochrome c release by indirect immunofluorescence, MCF-7; format: cell-based
Experimental: (§1) Mitochondria were isolated from CaP04-transfected 293T cells using 70 strokes (tight pestle) in a 1-ml Dounce homogenizer (Wheaton) in […] of CFS buffer as previously described (Thornberry, N. A., et al., 1998). Mitochondria were resuspended in H buffer (Thornberry, N. A., et al., 1998). Aliquots of […] of protein were analyzed on Laemmli SDS-15% PAGE gels and immunoblotted with anticytochrome c monoclonal antibody. Equal loading was ensured by probing the same blot with monoclonal antiactin. Results were visualized with enhanced chemiluminescence. Cytochrome c release was also determined via indirect immunofluorescence of transfected MCF-7 and 293T cells. Briefly, cells grown on coverslips were costained with Cy3-conjugated mouse anti-cytochrome c monoclonal antibody and an appropriate tag (HA for BNIP3 and FLAG for tBID), which was visualized with FITC-conjugated goat anti-rabbit IgG. Cells were also stained with Hoechst dye to determine apoptotic nuclear morphology. No fewer than 200 cells were scored for each sample. Fluorescence was visualized and captured using a Zeiss axiophot microscope equipped with a cooled charge-coupled device camera.

ventricular myocytes = experiment: cell viability of ventricular myocytes, calcein acetoxymethyl ester / ethidium homodimer-1; format: cell-based; conditions: cells expressing BNIP3ΔTM
Experimental: Ventricular myocytes were isolated from 1- to 2-day-old Sprague-Dawley rats (University of Manitoba, Winnipeg, Canada) and submitted to primary culture as reported (Kirshenbaum and Schneider, 1995). Myocytes were subjected to hypoxia for 24 hours in an air-tight chamber continually gassed with 95% N2-5% CO2, as previously reported (Moissac et al., 2000; Long et al., 1997; Tanaka et al., 1994). Adult rat hearts (n=3) were excised from adult rats (250 to 300 g) and subjected to global hypoxia for 1 hour on a modified Langendorff perfusion system with buffer continually gassed with 95% N2-5% CO2, as previously reported (Kirshenbaum, 1993). Heart failure was induced in rats by surgical ligation of the left anterior descending coronary artery, as previously reported (Dixon et al., 1992). Non-failing sham control hearts and those with heart failure were excised from animals 8 weeks after myocardial infarction. Hearts (n=3) were dissected to remove the infarcted scar tissue, and the left ventricular free wall was homogenized and analyzed by Western blot for BNIP3 expression. Animals were handled according to guidelines established by the University of Manitoba and Canadian Council on Animal Care.
The cDNAs for BNIP3 full-length (BNIP3) and carboxyl terminal transmembrane domain deletion mutant (BNIP3ΔTM) have been described previously (Vande et al., 2000). Recombinant adenoviruses encoding the full-length BNIP3 or transmembrane deletion mutant are designated AdBNIP3 or AdBNIP3ΔTM, respectively, and generated as reported previously (Kirshenbaum et al., 1993).
Cell viability was determined using the vital dyes 2 μmol/L calcein acetoxymethyl ester (green) to determine the number of living cells and 2 μmol/L ethidium homodimer-1 (red) (Molecular Probes) to identify the number of dead cells (Kirshenbaum and Schneider, 1995). The number of green cells versus red cells was used to determine changes in cell viability (Moissac et al., 2000). Cells were analyzed from at least n=3 independent myocyte isolations counting ≧200 cells for each condition tested. Data are expressed as mean±SE percent reduction from control.

293T cells = experiment: cytochrome c release by indirect immunofluorescence, 293T; format: cell-based
Experimental: as §1

endogenous BNIP3 = target: T1, endogenous BNIP3 (Rattus norvegicus, UniProt A0ACM8Q210); experiment: alkali extraction of mitochondria of hypoxic ventricular myocytes, BNIP3 western blot; format: cell-based
T1 construct: endogenous in cells; host or cells: neonatal rat ventricular myocytes, with or without adenovirus AdBNIP3ΔTM
Description: For detection of BNIP3 protein, total cardiac cell lysate was subjected to Western blot analysis using a murine antibody directed toward BNIP3 (Vande et al., 2000). To isolate mitochondria from ventricular myocytes, cells were washed in HIM buffer (200 mmol/L mannitol, 70 mmol/L sucrose, 10 mmol/L HEPES-KOH, 1 mmol/L EGTA, pH 7.5). The crude cell pellet was disrupted and resuspended in HIM buffer containing 2.0% wt/vol bovine serum albumin. The homogenate was ultracentrifuged to obtain the mitochondrial fraction and resuspended in 200 mmol/L sucrose, 10 mmol/L HEPES-KOH, 1 mmol/L ATP, 5 mmol/L sodium succinate, 0.08 mmol/L ADP, and 2 mmol/L K2HPO4. To assess whether BNIP3 integrates into mitochondrial membranes during hypoxia, mitochondria were subjected to alkali extraction using 0.01 mol/L Na2CO3 (pH 11.5); this will dissociate and solubilize proteins that are not membrane integrated (Vande et al, 2000; Goping et al, 1998). Antibodies directed toward the following Bcl-2 family members were obtained from respective suppliers: Bad (Transduction Laboratories Inc), Bax (Santa Cruz Inc), and Bak and Bcl-2 (Pharmingen). Bound proteins were visualized using enhanced chemiluminescence (ECL) reagents (Amersham Pharmacia Inc).

BNIP3 = target: T2, BNIP3 (Homo sapiens, UniProt Q12983); experiment: BNIP3 induced cell death by exclusion of propidium iodide, co-transfection of BNIP3 DTM plasmid (FIG. 13); format: cell-based; conditions: 1.0 to 1.0 μg plasmid ratio BNIP3 DTM to BNIP3
T2 construct: a pcDNA3-BNIP3 plasmid encoding the full length of BNIP3; expressed in transfected cells
Experimental: Increasing concentrations of BNIP3 DTM plasmid (0.25 to 1.0 μg) were added to a constant amount of BNIP3 (1.0 μg). Cell death was determined by exclusion of propidium iodide. […] The BNIP3 DTM mutant contains amino acids 1-163, which is a deletion of the C-terminus of the protein that contains the transmembrane domain.

PT pore = experiment: mitochondrial Dcm (DiOC6), ROS production (HE) and PI staining by flow cytometry in BNIP3-transfected 293T cells; format: cell-based; conditions: 293T cells
Experimental: Changes in mitochondrial function were determined by incubating 10 6 293T cells, transiently transfected via the CaP04 method, with either 1 mM JC-1, 40 nM DiOC6, or 2 mM dihydroethidium (HE) (all from Molecular Probes, Inc.) for 30 minutes at 37° C. in Hanks' balanced salt solution (Gibco-BRL). Cells were scored using a FACScalibur flow cytometer (Becton-Dickinson, San Jose, Calif.), and data were analyzed on Celiquest software, version 3.1 (Becton-Dickinson). Controls were performed in the presence or absence of […] mClCCP (Sigma) or an excess of 30% H2 02. For inhibition experiments, cyclosporin A (Sigma) or bongkrekic acid (a gift from J. A. Duine, Delft University, Delft, The Netherlands) was added 2 hours prior to transfection. All cells were harvested 8 hours after transfection and stained with 40 nM DiOC6, 2 mM HE, or 1 mg of propidium iodide (PI) (Sigma) per ml. In all cases, samples were gated to exclude cellular debris.

[1] = tested on: primary hippocampal neurons; experiment: primary hippocampal neurons transfected with BNIP3 plasmids, DNA condensation and survival; format: cell-based, rat; conditions: for BNIP3-positive neurons showing DNA condensation / DNA damage: transiently transfected hippocampal neurons
Experimental: Transfection of cells was performed on day four in culture with LipofectAMINE 2000 […] according to manufacturer's protocol. Cells were transfected with a pcDNA3-BNIP3 plasmid encoding the full length of BNIP3 and a pcDNA3-BNIP3-163 plasmid that encodes a truncated form (the first 163 amino acids) of BNIP3 that lacks the functional transmembrane domain. Cells were used after 9 days in culture for excitotoxicity experiments. Neuronal cell death was assessed using trypan blue exclusion, morphological changes, and Hoescht 33342 staining. Morphological characteristics were examined on a Nikon Eclipse TE200 microscope and fluorescence was examined on a Zeiss Axioskop 2.
In vitro cell death was estimated using trypan blue exclusion. Cells were incubated in 0.4% trypan blue solution for 30 minutes and then counted on a bright-field microscope. Nonviable cells were distinguished by their dark blue staining. To examine nuclear morphology, nuclear DNA was stained with Hoescht 33342. DNA fragmentation was detected by TUNEL using an in situ cell death detection kit with fluorescein. Statistical analyses were by ANOVA with Tukey's post-test.

caspase 3-like proteases = experiment: caspase activation, colorigenic cleavage of Ac-DEVD-pNA by lysates of transfected 293T cells; format: biochemical; conditions: 293T lysates harvested 1 to 36 hours posttransfection, versus untransfected controls
Experimental: Lysates were collected from 293T cells, transiently transfected via the CaP04 method (Ray, R., et al., 1999), at the indicated times. Aliquots of these lysates were run under Laemmli sodium dodecyl sulfate-polyacrylamide gel electrophoresis (SDS-PAGE) conditions and immunoblotted with mouse monoclonal anti-PARP. Results were visualized with an enhanced chemiluminescence system (Amersham Pharmacia Biotech, Amersham, U. K.). Transfected 293T cells were also assayed for caspase cleavage via colorigenic cleavage of the peptide Ac-DEVD-pNA (Biomol, Plymouth Meeting, Pa.), according to the conditions outlined by Quignon et al. (Scaffidi, C., et al., 1998), using 100 mM peptide. Where appropriate, samples were preincubated with 500 nM Ac-DEVD-fmk for 30 minutes at room temperature. Data were acquired on a Multiskan MCC/340 (Titertek) plate reader at 405 nm.

T2 sequence (Q12983 whole entry): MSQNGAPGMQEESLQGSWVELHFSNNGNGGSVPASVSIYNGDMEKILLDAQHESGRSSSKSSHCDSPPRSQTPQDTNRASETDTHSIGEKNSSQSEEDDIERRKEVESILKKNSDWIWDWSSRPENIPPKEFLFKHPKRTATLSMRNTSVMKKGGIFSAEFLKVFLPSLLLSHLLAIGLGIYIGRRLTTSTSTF
T1 sequence (A0ACM8Q210 1-187): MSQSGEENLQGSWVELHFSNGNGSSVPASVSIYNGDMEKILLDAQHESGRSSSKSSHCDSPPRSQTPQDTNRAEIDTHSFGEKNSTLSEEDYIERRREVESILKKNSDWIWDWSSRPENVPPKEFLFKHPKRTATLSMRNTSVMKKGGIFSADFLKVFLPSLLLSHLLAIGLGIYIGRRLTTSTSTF

BNIP3ΔTM: carboxyl terminal transmembrane deletion mutant of BNIP3, deletion of amino acids 164 to 194 (amino acids 1-163)
cytochrome c release (in words) (MCF-7 cells): no significant cytochrome c release | toxicity to myocytes (viability versus control cells) (ventricular myocytes): not toxic | hypoxia-induced cell death of ventricular myocytes (ventricular myocytes; hypoxia 24 hours): markedly blunted | cytochrome c release (in words) (293T cells): only very low levels | hypoxia-induced mitochondrial integration of the endogenous BNIP3 protein (endogenous BNIP3): suppressed | cell death induced by BNIP3 (propidium iodide exclusion) (BNIP3): background levels | DiOC6 / HE staining compared to untreated controls (PT pore): not affected | neurons surviving glutamate toxicity ([1]; glutamate 100 μM at day 9 in culture, 5 days after transfection): 68% | BNIP3-positive neurons showing DNA condensation / DNA damage ([1]; listed as BNIP^3-163): 17% | BNIP3-positive neurons showing DNA condensation / DNA damage ([1]; listed as pcDNA3-BNIP3^3-163): 24% | increase in Ac-DEVD-pNA substrate cleavage after transfection (caspase 3-like proteases): only marginal increases
